# According to patent publication US7211572B2 (Japan Tobacco Inc., priority 2003, dated 2007):
# Counter-ions that a name gives are not always drawn.
# Target: T1, HIV integrase (Human immunodeficiency virus type 1 group M subtype B, UniProt P12497, F1332H)
# T1 construct: HIV integrase full length gene; made in house; host or cells: Escherichia coli BL21(DE3), plasmid pET21a-INH
# Assay: Determination of enzyme (HIV integrase) inhibitory activity
# Format: biochemical
# Settings: recombinant HIV integrase (F185H), strand transfer ELISA, absorbance at 450 nm
# Procedure, shortened: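 Full-length integrase with F185H, expressed in E. coli and purified, was reacted for 60 min at 37 °C with compound and biotinylated donor DNA bound to streptavidin plates. Target DNA was added for 10 min, then anti-digoxigenin-peroxidase detection at A450; IC50 from % inhibition versus enzyme-free blank.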
row,SMILES,IC50 [nM]
1,"O=C1c2c(O)c(=O)c(-c3nccs3)cn2CCN1CCCc1c(F)cccc1Cl [Example 264, 2-[3-(2-chloro-6-fluorophenyl)propyl]-9-hydroxy-7-(thiazol-2-yl)-3,4-dihydro-2H-pyrido[1,2-a]pyrazine-1,8-dione]",< 10
2,"CC(=O)C(=O)Nc1cn2ccn(Cc3cccc(Cl)c3)c(=O)c2c(O)c1=O [Example 265, N-[2-(3-chlorobenzyl)-9-hydroxy-1,8-dioxo-1,8-dihydro-2H-pyrido[1,2-a]pyrazin-7-yl]-2-oxopropionamide]",< 10
3,"O=C(NCc1ccccc1)c1cn2c(c(O)c1=O)C(=O)N(Cc1cccc(Cl)c1)CC2 [Example 266, N-benzyl-2-(3-chlorobenzyl)-9-hydroxy-1,8-dioxo-1,3,4,8-tetrahydro-2H-pyrido[1,2-a]pyrazine-7-carboxamide]",< 10
4,"O=C1c2c(O)c(=O)c(-c3cc[nH]n3)cn2CCN1Cc1cccc(Cl)c1 [Example 267, 2-(3-chlorobenzyl)-9-hydroxy-7-(1H-pyrazol-3-yl)-3,4-dihydro-2H-pyrido[1,2-a]pyrazine-1,8-dione]",10 to 100
5,"O=C1c2c(O)c(=O)c(-c3ccncn3)cn2CCN1Cc1cccc(Cl)c1 [Example 268, 2-(3-chlorobenzyl)-9-hydroxy-7-(pyrimidin-4-yl)-3,4-dihydro-2H-pyrido[1,2-a]pyrazine-1,8-dione]",< 10
6,"O=C(NCc1cccc2ccccc12)c1cn2c(c(O)c1=O)C(=O)N(Cc1cccc(Cl)c1)CC2 [Example 269, N-(naphthalen-1-ylmethyl)-2-(3-chlorobenzyl)-9-hydroxy-1,8-dioxo-1,3,4,8-tetrahydro-2H-pyrido [1,2-a]pyrazine-7-carboxamide]",< 10
7,"O=C(NC(c1ccccc1)c1ccccc1)c1cn2c(c(O)c1=O)C(=O)N(Cc1cccc(Cl)c1)CC2 [Example 270, N-benzhydryl-2-(3-chlorobenzyl)-9-hydroxy-1,8-dioxo-1,3,4,8-tetrahydro-2H-pyrido[1,2-a]pyrazine-7-carboxamide]",10 to 100
8,"O=C1c2c(O)c(=O)c(-c3ncccn3)cn2CCN1Cc1cccc(Cl)c1 [Example 271, 2-(3-chlorobenzyl)-9-hydroxy-7-(pyrimidin-2-yl)-3,4-dihydro-2H-pyrido[1,2-a]pyrazine-1,8-dione hydrochloride]",10 to 100
9,"CC(C)(C(=O)c1cn2c(c(O)c1=O)C(=O)N(Cc1cccc(Cl)c1)CC2)c1ccccc1 [Example 272, 2-(3-chlorobenzyl)-9-hydroxy-7-(2-methyl-2-phenylpropionyl)-3,4-dihydro-2H-pyrido[1,2-a]pyrazine-1,8-dione]",10 to 100
10,"CC(C)(C)c1ccc(CNC(=O)c2cn3c(c(O)c2=O)C(=O)N(Cc2cccc(Cl)c2)CC3)cc1 [Example 273, N-(4-tert-butylbenzyl)-2-(3-chlorobenzyl)-9-hydroxy-1,8-dioxo-1,3,4,8-tetrahydro-2H-pyrido [1,2-a] pyrazine-7-carboxamide]",10 to 100
11,"O=C(Nc1cn2ccn(Cc3cccc(Cl)c3)c(=O)c2c(O)c1=O)C1CCCC1 [Example 274, N-[2-(3-chlorobenzyl)-9-hydroxy-1,8-dioxo-1,8-dihydro-2H-pyrido[1,2-a]pyrazin-7-yl)cyclopentanecarboxamide]",10 to 100
12,"O=C(Cc1ccc(F)cc1)Nc1cn2ccn(Cc3cccc(Cl)c3)c(=O)c2c(O)c1=O [Example 275, N-[2-(3-chlorobenzyl)-9-hydroxy-1,8-dioxo-1,8-dihydro-2H-pyrido[1,2-a]pyrazin-7-yl]-2-(4-fluorophenyl)acetamide]",< 10
13,"CC(C)(C)C(=O)Nc1cn2ccn(Cc3cccc(Cl)c3)c(=O)c2c(O)c1=O [Example 276, N-[2-(3-chlorobenzyl)-9-hydroxy-1,8-dioxo-1,8-dihydro-2H-pyrido[1,2-a]pyrazin-7-yl]-2,2-dimethylpropionamide]",< 10
14,"CC(C)(C(=O)Nc1cn2ccn(Cc3cccc(Cl)c3)c(=O)c2c(O)c1=O)c1ccccc1 [Example 277, N-[2-(3-chlorobenzyl)-9-hydroxy-1,8-dioxo-1,8-dihydro-2H-pyrido[1,2-a]pyrazin-7-yl]-2-phenylisobutyramide]",< 10
